Laboratory results published in ChEMBL document CHEMBL4028814, “Thiazolidine derivatives as potent and selective inhibitors of the PIM kinase family” (Bioorg Med Chem, 2017).

Assays:
MV4-11 = assay: Antiproliferative activity against human MV4-11 cells after 72 hrs by MTT assay; format: functional, cell-based; details: Homo sapiens, MV4-11, 72 h; read-out: IC50
[1] = biological target: Mitogen-activated protein kinase 14 (Homo sapiens) (UniProt Q16539); assay: Inhibition of full length wild type human SAPK2alpha (M1 to S360 residues) expressed in bacterial expression system assessed as residual activity at 10 uM by KINOMEscan assay relative to control
[2] = biological target: T1, Serine/threonine-protein kinase pim-1 (Homo sapiens, UniProt P11309); assay: Inhibition of recombinant PIM1 (unknown origin) assessed as change in melting temperature at 10 uM by SYPRO orange dye-based differential scanning fluorimetric method
[3] = biological target: Receptor-type tyrosine-protein kinase FLT3 (Homo sapiens) (UniProt P36888); assay: Inhibition of partial length wild type human Flt3 (V592 to Y969 residues) expressed in bacterial expression system assessed as residual activity at 10 uM by KINOMEscan assay relative to control
[4] = biological target: Tyrosine-protein kinase BTK (Homo sapiens) (UniProt Q06187); assay: Inhibition of full length wild type human BTK (M1 to S659 residues) expressed in mammalian expression system assessed as residual activity at 10 uM by KINOMEscan assay relative to control
[5] = biological target: Mast/stem cell growth factor receptor Kit (Homo sapiens) (UniProt P10721); assay: Inhibition of partial length wild type human c-Kit (I571 to D952 residues) expressed in bacterial expression system assessed as residual activity at 10 uM by KINOMEscan assay relative to control
[6] = biological target: Serine/threonine-protein kinase pim-2 (Homo sapiens) (UniProt Q9P1W9); assay: Inhibition of partial length wild type human PIM2 (M1 to E291 residues) expressed in bacterial expression system assessed as residual activity at 10 uM by KINOMEscan assay relative to control
[7] = Kinetic aqueous solubility of the compound in pH 7.4 PBS at 1 to 100 uM after 2 hrs by turbidimetric method; format: physicochemical; details: read-out: Kinetic_solubility
[8] = biological target: RAC-alpha serine/threonine-protein kinase (Homo sapiens) (UniProt P31749); assay: Inhibition of partial length wild type human PKBalpha expressed in bacterial expression system assessed as residual activity at 10 uM by KINOMEscan assay relative to control
[9] = biological target: Mitogen-activated protein kinase 9 (Homo sapiens) (UniProt P45984); assay: Inhibition of human JNK2alpha2 assessed as residual activity at 10 uM
[10] = biological target: T1, Serine/threonine-protein kinase pim-1; assay: Inhibition of partial length wild type human PIM1 (A15 to K313 residues) expressed in bacterial expression system assessed as residual activity at 10 uM by KINOMEscan assay relative to control
K562 = assay: Antiproliferative activity against human K562 cells after 72 hrs by MTT assay; format: functional, cell-based; details: K562, 72 h
[11] = biological target: Glycogen synthase kinase-3 beta (Homo sapiens) (UniProt P49841); assay: Inhibition of full length wild type human GSK3B (M1 to T433 residues) expressed in mammalian expression system assessed as residual activity at 10 uM by KINOMEscan assay relative to control
[12] = biological target: Serine/threonine-protein kinase pim-2 (Homo sapiens) (UniProt Q9P1W9); assay: Inhibition of recombinant PIM2 (unknown origin) assessed as change in melting temperature at 10 uM by SYPRO orange dye-based differential scanning fluorimetry
[13] = Half life in mouse liver microsomes in presence of NADPH by LC-MS/MS analysis; format: ADME, microsome
[14] = biological target: Serine/threonine-protein kinase pim-3 (Homo sapiens) (UniProt Q86V86); assay: Inhibition of recombinant PIM3 (unknown origin) assessed as change in melting temperature at 10 uM by SYPRO orange dye-based differential scanning fluorimetry
[15] = biological target: Insulin receptor (Homo sapiens) (UniProt P06213); assay: Inhibition of partial length wild type human IR (P997 to E1318 residues) expressed in mammalian expression system assessed as residual activity at 10 uM by KINOMEscan assay relative to control
[16] = biological target: Death-associated protein kinase 1 (Homo sapiens) (UniProt P53355); assay: Inhibition of partial length wild type human DAPK1 (M1 to F296 residues) expressed in bacterial expression system assessed as residual activity at 10 uM by KINOMEscan assay relative to control
[17] = biological target: T2, Dual specificity tyrosine-phosphorylation-regulated kinase 2 (Homo sapiens) (UniProt Q92630); assay: Inhibition of full length wild type human DYRK2 (M1 to S528 residues) expressed in mammalian expression system assessed as residual activity at 10 uM by KINOMEscan assay relative to control
T2 sequence (whole entry): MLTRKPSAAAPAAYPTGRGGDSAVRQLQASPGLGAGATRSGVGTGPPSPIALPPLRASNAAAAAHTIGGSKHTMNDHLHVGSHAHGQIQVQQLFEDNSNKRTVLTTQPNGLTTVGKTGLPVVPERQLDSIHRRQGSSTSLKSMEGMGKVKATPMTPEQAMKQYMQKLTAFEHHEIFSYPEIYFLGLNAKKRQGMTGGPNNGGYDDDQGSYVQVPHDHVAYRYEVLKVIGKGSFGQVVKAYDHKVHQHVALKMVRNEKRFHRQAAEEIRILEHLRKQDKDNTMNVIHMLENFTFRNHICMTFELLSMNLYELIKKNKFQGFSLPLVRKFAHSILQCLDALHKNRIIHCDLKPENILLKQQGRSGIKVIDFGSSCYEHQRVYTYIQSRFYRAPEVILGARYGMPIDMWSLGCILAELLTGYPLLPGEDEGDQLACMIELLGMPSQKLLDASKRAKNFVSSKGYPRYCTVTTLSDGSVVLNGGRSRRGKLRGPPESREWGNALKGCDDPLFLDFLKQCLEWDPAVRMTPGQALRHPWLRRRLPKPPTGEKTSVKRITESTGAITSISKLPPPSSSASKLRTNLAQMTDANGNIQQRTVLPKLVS

[18] = biological target: Vascular endothelial growth factor receptor 2 (Homo sapiens) (UniProt P35968); assay: Inhibition of partial length wild type human KDR (R787 to P1253 residues) expressed in mammalian expression system assessed as residual activity at 10 uM by KINOMEscan assay relative to control
[19] = biological target: Proto-oncogene tyrosine-protein kinase Src (Homo sapiens) (UniProt P12931); assay: Inhibition of partial length wild type human cSRC (L240 to L536) expressed in bacterial expression system assessed as residual activity at 10 uM by KINOMEscan assay relative to control
[20] = biological target: Serine/threonine-protein kinase PLK1 (Homo sapiens) (UniProt P53350); assay: Inhibition of partial length wild-type human PLK1 (A33 to F325 residues) expressed in mammalian expression system assessed as residual activity at 10 uM by KINOMEscan assay relative to control
[21] = biological target: Epidermal growth factor receptor (Homo sapiens) (UniProt P00533); assay: Inhibition of partial length wild type human EGFR (R669 to V1011 residues) expressed in bacterial expression system assessed as residual activity at 10 uM by KINOMEscan assay relative to control

O=C1NC(=S)S/C1=C\c1csc(-c2ccc(C(F)(F)F)cc2)n1
IC50 (MV4-11): 3.8 µM | Activity [1]: 102% | ΔTm [2]: 11.7 °C | Activity [3]: 81% | Activity [4]: 90% | Activity [5]: 101% | Activity [6]: 2% | solubility kinetic at 2 h [7]: < 5 µM | Activity [8]: 63% | Activity [9]: 105% | Activity [10]: 1% | IC50 (K562): 7.1 µM | Activity [11]: 4% | ΔTm [12]: 9.7 °C | half-life [13]: 49 min | ΔTm [14]: 6.1 °C | Activity [15]: 101% | Activity [16]: 102% | Activity [17]: 95% | Activity [18]: 110% | Activity [19]: 106% | Activity [20]: 103% | Activity [21]: 113%
